Biological target: T1, LRRC8A (volume-regulated anion channel, VRAC) (Homo sapiens, UniProt Q8IWT6)
T1 construct: endogenous VRAC in WT HAP-1 and HEK-293 cells (current absent in LRRC8A-KO cells); with at least one other LRRC8 subunit (LRRC8B, C, D or E)
T1 sequence (Q8IWT6 1-810): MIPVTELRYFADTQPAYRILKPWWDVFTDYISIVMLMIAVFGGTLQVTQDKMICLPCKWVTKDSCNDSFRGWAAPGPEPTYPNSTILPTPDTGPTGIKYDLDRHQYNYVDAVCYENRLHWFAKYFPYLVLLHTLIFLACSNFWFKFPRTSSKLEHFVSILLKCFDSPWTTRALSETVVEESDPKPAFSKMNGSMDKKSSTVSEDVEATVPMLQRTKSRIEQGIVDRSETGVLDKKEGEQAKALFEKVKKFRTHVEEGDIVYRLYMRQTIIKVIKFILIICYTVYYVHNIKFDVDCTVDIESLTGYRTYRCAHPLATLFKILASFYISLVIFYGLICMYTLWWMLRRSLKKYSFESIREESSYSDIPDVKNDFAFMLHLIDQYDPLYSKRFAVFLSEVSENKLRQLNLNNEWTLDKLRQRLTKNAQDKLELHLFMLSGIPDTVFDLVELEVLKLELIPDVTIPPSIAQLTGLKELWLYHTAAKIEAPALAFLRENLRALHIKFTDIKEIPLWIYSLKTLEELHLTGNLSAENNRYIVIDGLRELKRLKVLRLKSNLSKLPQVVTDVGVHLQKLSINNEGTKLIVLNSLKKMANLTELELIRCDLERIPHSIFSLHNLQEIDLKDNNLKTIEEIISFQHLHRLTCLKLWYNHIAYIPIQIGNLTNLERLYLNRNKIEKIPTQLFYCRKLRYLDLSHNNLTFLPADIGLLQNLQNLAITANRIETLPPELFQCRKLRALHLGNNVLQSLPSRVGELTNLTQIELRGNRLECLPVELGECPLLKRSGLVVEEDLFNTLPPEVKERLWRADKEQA
Experiment: whole-cell patch clamp of swelling-induced anion current, WT vs LRRC8A-KO cells
Type: cell-based

Compound: CCCCC1(C2CCCC2)Cc2cc(OCCCC(=O)O)c(Cl)c(Cl)c2C1=O (stereo not shown) [DCPIB, 4‐(2‐butyl‐6,7‐dichloro‐2‐cyclopentylindan‐1‐on‐5‐yl) oxybutyric acid]
- whole-cell patch clamp of swelling-induced anion current, WT vs LRRC8A-KO cells: 10 µM

— article PMC6900491, “The LRRC8 volume‐regulated anion channel inhibitor, DCPIB, inhibits mitochondrial respiration independently of the channel” (Physiological Reports, 2019)
